Results taken from patent US11655247B2, “Nanoluc suicide substrates” (PROMEGA CORPORATION, priority 2018, dated 2023).

Columns and labels:
[1] = target: T1, NanoLuc (Oplophorus gracilirostris, UniProt Q9GV45, A31E/A60N/A81I/F95D/I117V/K70R/L54V/L99Q/M102K/N193R/P142E/Q151K/Q38R/Q45L/V71I/Y165I); test: Inhibition of NanoLuc luciferase: blocking of furimazine luminescence after pre-incubation; assay type: biochemical; settings: for Inhibition of NanoLuc (bioluminescence upon later furimazine addition): compound incubated with NanoLuc first, then furimazine (10 μM) added; for Initial luminescent signal compared with furimazine: incubated with NanoLuc in DMEM for 12 minutes
Procedure: Compounds were also tested for their ability to block furimazine luminescence with NanoLuc. Typically, NanoLuc (0.4 μg/mL) in DMEM was incubated with either furimazine or test compound (50 μM) while monitoring RLU's with a GloMax® luminometer for 10-60 minutes. After the set time, the plate was removed from the instrument, and a dose of furimazine (10 μM) was added to the well containing the test compound and monitored for 10-60 minutes.
FIGS. 3A-B depicts inhibition of Nluc luciferase by furimazine-h. Furimazine-h (10 μM) was incubated with NanoLuc in NanoGlo or DMEM for 15 or 10 minutes, respectively. This bright signal rapidly degrades to a fraction of the signal observed in the furimazine positive control wells.
FIG. 9 depicts inhibition of Nluc luciferase by furimazine-h. This is a reverse addition experiment as compared to FIG. 3. Furimazine (10 μM) was incubated with NanoLuc in NanoGlo® buffer for 15 minutes.
JRW-0855 and JRW-1088 were incubated with NanoLuc in DMEM for 12 minutes. […] After the incubation period, 10 μM furimazine was added to the well.

[2] = target: T1, NanoLuc; assay type: biochemical; settings: for RLU (at 100 μM): relative value, Furimazine set to 1, NanoLuc, read three minutes after substrate addition
Procedure: Luminescence Assay Procedure:
Each compound to be screened was dissolved in DMSO (5 mM) and then further diluted to 100 μM in NANO-GLO® Luciferase Assay Buffer. Km values were determined by first serially diluting substrates two-fold into NANO-GLO® Luciferase Assay Buffer. Substrate dilutions were then combined with an equal volume of NanoLuc diluted to 4 ng/ml in TBS+0.01% BSA. Autoluminescence was measured by combining the 100 uM dilution of substrate with TBS+0.01% BSA. Luminescence and autoluminescence values were measured in a GloMax®-Multi+ luminometer three minutes after substrate addition. Signal decay was measured by combining equal volumes of 100 uM of substrate with 4 ng/ml NanoLuc in TBS+0.01% BSA and then samples were read in five minute intervals for two hours using a GloMax®-Multi+. Km was calculated using GraphPad Prism using nonlinear Michaelis-Menten regression. Signal half-life values were calculated using GraphPad Prism Non-linear decay, plateau set to zero.

T1 sequence (Q9GV45 28-196 with tags or gaps with the stated changes limits assumed): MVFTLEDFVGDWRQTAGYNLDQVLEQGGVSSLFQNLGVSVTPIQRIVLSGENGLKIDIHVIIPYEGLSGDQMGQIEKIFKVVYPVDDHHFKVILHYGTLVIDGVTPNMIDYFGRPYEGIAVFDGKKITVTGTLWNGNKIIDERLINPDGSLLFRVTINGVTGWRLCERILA

Structure (SMILES): O=C(NCCCCCCCCOc1ccc(Cc2nc3c(Cc4ccccc4)[nH]c(-c4ccc(O)cc4)cn-3c2=O)cc1F)c1cc2ccc(O)cc2oc1=O [JRW-1018, N-(8-(4-((8-benzyl-6-(4-hydroxyphenyl)-3-oxo-3,7-dihydroimidazo[1,2-a]pyrazin-2-yl)methyl)-2-fluorophenoxy)octyl)-7-hydroxy-2-oxo-2H-chromene-3-carboxamide]
- Inhibition of NanoLuc (bioluminescence upon later furimazine addition) [1]: partial Nluc inhibitors

Structure (SMILES): O=c1ccc2cc(Cc3nc4c(Cc5ccccc5)[nH]c(-c5ccc(O)cc5)cn-4c3=O)ccc2o1 [JRW-0995, 8-benzyl-6-(4-hydroxyphenyl)-2-((2-oxo-2H-chromen-6-yl)methyl)imidazo[1,2-a]pyrazin-3(7H)-one]
- RLU (at 100 μM) [2]: 0.009
- Inhibition of NanoLuc (bioluminescence upon later furimazine addition) [1]: partial Nluc inhibitors

Structure (SMILES): Cc1cc(C)n2c1C(CCNC(=O)CCC(=O)NCCCCCCCCOc1ccc(Cc3nc4c(Cc5ccccc5)[nH]c(-c5ccc(O)cc5)cn-4c3=O)cc1F)=C1C=CC=[N+]1[B-]2(F)F [JRW-1088, N1-(8-(4-((8-benzyl-6-(4-hydroxyphenyl)-3-oxo-3,7-dihydroimidazo[1,2-a]pyrazin-2-yl)methyl)-2-fluorophenoxy)octyl)-N4-(2-(5,5-difluoro-1,3-dimethyl-5H-5λ^4,6λ^4-dipyrrolo[1,2-c:2′,1′-f][1,3,2]diazaborinin-10-yl)ethyl)succinamide]
- Inhibition of NanoLuc (bioluminescence upon later furimazine addition) [1]: only partially inhibited
- Initial luminescent signal compared with furimazine [1]: significantly lower

Structure (SMILES): O=C(NCCCCCCCCOc1ccc(Cc2nc3c(Cc4ccccc4)[nH]c(-c4ccc(O)cc4)cn-3c2=O)cc1F)c1cc2cc3c4c(c2oc1=O)CCCN4CCC3 [JRW-1023, N-(8-(4-((8-benzyl-6-(4-hydroxyphenyl)-3-oxo-3,7-dihydroimidazo[1,2-a]pyrazin-2-yl)methyl)-2-fluorophenoxy)octyl)-11-oxo-2,3,6,7-tetrahydro-1H,5H,11H-pyrano[2,3-f]pyrido[3,2,1-ij]quinoline-10-carboxamide]
- Inhibition of NanoLuc (bioluminescence upon later furimazine addition) [1]: did not inhibit NanoLuc

Structure (SMILES): O=C(CCOCCOCCNC(=O)c1ccc(C(=O)[O-])c(-c2c3ccc(O)cc3[o+]c3cc(O)ccc23)c1)NCCCCCCCCOc1ccc(Cc2cc3c(Cc4ccccc4)[nH]c(-c4ccc(O)cc4)cn-3c2=O)cc1F [JRW-0926, 4-((2-(2-(3-((8-(4-((1-benzyl-3-(4-hydroxyphenyl)-6-oxo-2,6-dihydropyrrolo[1,2-a]pyrazin-7-yl)methyl)-2-fluorophenoxy)octyl)amino)-3-oxopropoxy)ethoxy)ethyl)carbamoyl)-2-(3,6-dihydroxyxanthylium-9-yl)benzoate]
- RLU (at 100 μM) [2]: 0.04
- Inhibition of NanoLuc (bioluminescence upon later furimazine addition) [1]: exemplary suicide substrates of NanoLuc

Structure (SMILES): O=C(NCCCCCCCCOc1ccc(Cc2nc3c(Cc4ccccc4)[nH]c(-c4ccc(O)cc4)cn-3c2=O)cc1F)c1ccc(-c2c3ccc4cc(O)ccc4c3[o+]c3c2ccc2cc(O)ccc23)c(C(=O)[O-])c1 [JRW-1059, 5-((8-(4-((8-benzyl-6-(4-hydroxyphenyl)-3-oxo-3,7-dihydroimidazo[1,2-a]pyrazin-2-yl)methyl)-2-fluorophenoxy)octyl)carbamoyl)-2-(3,11-dihydroxydibenzo[c,h]xanthen-14-ium-7-yl)benzoate]
- Inhibition of NanoLuc (bioluminescence upon later furimazine addition) [1]: NanoLuc is not inhibited

Structure (SMILES): O=C(NCCCCCCCCOc1ccc(Cc2nc3c(Cc4ccccc4)[nH]c(-c4ccc(O)cc4)cn-3c2=O)cc1F)c1ccc(-c2c3cc(F)c(O)cc3[o+]c3cc(O)c(F)cc23)c(C(=O)[O-])c1 [JRW-1058, 5-((8-(4-((8-benzyl-6-(4-hydroxyphenyl)-3-oxo-3,7-dihydroimidazo[1,2-a]pyrazin-2-yl)methyl)-2-fluorophenoxy)octyl)carbamoyl)-2-(2,7-difluoro-3,6-dihydroxyxanthylium-9-yl)benzoate]
- Inhibition of NanoLuc (bioluminescence upon later furimazine addition) [1]: exemplary suicide substrates of NanoLuc

Structure (SMILES): NCCCCCCOc1ccc(Cc2nc3c(Cc4ccccc4)[nH]c(-c4ccc(O)cc4)cn-3c2=O)cc1F [JRW-0855, 2-(4-((6-aminohexyl)oxy)-3-fluorobenzyl)-8-benzyl-6-(4-hydroxyphenyl)imidazo[1,2-a]pyrazin-3(7H)-one]
- RLU (at 100 μM) [2]: 0.004
- Inhibition of NanoLuc (bioluminescence upon later furimazine addition) [1]: only partially inhibited
- Initial luminescent signal compared with furimazine [1]: significantly lower

Structure (SMILES): NCCOCCOCCC(=O)NCCCCCCCCOc1ccc(Cc2cc3c(Cc4ccccc4)[nH]c(-c4ccc(O)cc4)cn-3c2=O)cc1F [JRW-0925, 3-(2-(2-aminoethoxy)ethoxy)-N-(8-(4-((1-benzyl-3-(4-hydroxyphenyl)-6-oxo-2,6-dihydropyrrolo[1,2-a]pyrazin-7-yl)methyl)-2-fluorophenoxy)octyl)propanamide]
- RLU (at 100 μM) [2]: 0.02
- Inhibition of NanoLuc (bioluminescence upon later furimazine addition) [1]: partial Nluc inhibitors

Structure (SMILES): [N-]=[N+]=NCCCCCCOc1ccc(Cc2nc3c(Cc4ccccc4)[nH]c(-c4ccc(O)cc4)cn-3c2=O)cc1F [JRW-0975, 2-(4-((6-azidohexyl)oxy)-3-fluorobenzyl)-8-benzyl-6-(4-hydroxyphenyl)imidazo[1,2-a]pyrazin-3(7H)-one]
- RLU (at 100 μM) [2]: 0.005
- Inhibition of NanoLuc (bioluminescence upon later furimazine addition) [1]: exemplary suicide substrates of NanoLuc

Structure (SMILES): O=C(NCCCCCCOc1ccc(Cc2nc3c(Cc4ccccc4)[nH]c(-c4ccc(O)cc4)cn-3c2=O)cc1F)c1ccc(C(=O)[O-])c(-c2c3ccc(O)cc3[o+]c3cc(O)ccc23)c1 [JRW-0893, 4-((6-(4-((8-benzyl-6-(4-hydroxyphenyl)-3-oxo-3,7-dihydroimidazo[1,2-a]pyrazin-2-yl)methyl)-2-fluorophenoxy)hexyl)carbamoyl)-2-(3,6-dihydroxyxanthylium-9-yl)benzoate]
- RLU (at 100 μM) [2]: 0.05
- Inhibition of NanoLuc (bioluminescence upon later furimazine addition) [1]: exemplary suicide substrates of NanoLuc

Structure (SMILES): NCCCCCCCCOc1ccc(Cc2nc3c(Cc4ccccc4)[nH]c(-c4ccc(O)cc4)cn-3c2=O)cc1F [JRW-0904, 2-(4-((8-aminooctyl)oxy)-3-fluorobenzyl)-8-benzyl-6-(4-hydroxyphenyl)imidazo[1,2-a]pyrazin-3(7H)-one]
- Inhibition of NanoLuc (bioluminescence upon later furimazine addition) [1]: partial Nluc inhibitors

Structure (SMILES): O=C(CCc1ccc2n1[B-](F)(F)[N+]1=C(c3ccc[nH]3)C=CC1=C2)NCCCCCCOc1ccc(Cc2nc3c(Cc4ccccc4)[nH]c(-c4ccc(O)cc4)cn-3c2=O)cc1F [JRW-0900, N-(6-(4-((8-benzyl-6-(4-hydroxyphenyl)-3-oxo-3,7-dihydroimidazo[1,2-a]pyrazin-2-yl)methyl)-2-fluorophenoxy)hexyl)-3-(5,5-difluoro-7-(1H-pyrrol-2-yl)-5H-5l4,6l4-dipyrrolo[1,2-c:2′,1′-f][1,3,2]diazaborinin-3-yl)propanamide]
- RLU (at 100 μM) [2]: 0.00094
- Inhibition of NanoLuc (bioluminescence upon later furimazine addition) [1]: did not inhibit NanoLuc

Structure (SMILES): O=c1c(Cc2ccco2)nc2c(Cc3ccccc3)[nH]c(-c3ccccc3)cn1-2 [Furimazine, 8-benzyl-2-(furan-2-ylmethyl)-6-phenylimidazo[1,2-a]pyrazin-3(7H)-one, reference compound]
- Light output (value set to 1) ([2]; at 2 ng/mL NanoLuc): ~2.0×10^7 RLU
- RLU (at 100 μM) [2]: 1

Structure (SMILES): O=c1c(Cc2ccc(OCCCCCCS(=O)(=O)[O-])c(F)c2)nc2c(Cc3ccccc3)[nH]c(-c3ccc(O)cc3)cn1-2.[Na+] [JRW-0892-2, Sodium 6-(4-((8-benzyl-6-(4-hydroxyphenyl)-3-oxo-3,7-dihydroimidazo[1,2-a]pyrazin-2-yl)methyl)-2-fluorophenoxy)hexane-1-sulfonate]
- RLU (at 100 μM) [2]: 0.04
- Inhibition of NanoLuc (bioluminescence upon later furimazine addition) [1]: exemplary suicide substrates of NanoLuc
